Measurements reported in patent publication US12358886B2, “Heterocyclic compounds for use in the treatment of cancer” (Artios Pharma Limited, priority 2019, dated 2025).

Each compound was assayed against Polθ protein (amino acids 2-2590) (Homo sapiens, UniProt O75417) (assay: Polθ full length enzyme potency assay (PicoGreen)). Settings: Polθ IC50 (nM), full length N-His, C-term FLAG tagged Polθ, PicoGreen fluorescence, 12 point concentration response.
Sequence of Polθ protein (amino acids 2-2590) (O75417 2-2590): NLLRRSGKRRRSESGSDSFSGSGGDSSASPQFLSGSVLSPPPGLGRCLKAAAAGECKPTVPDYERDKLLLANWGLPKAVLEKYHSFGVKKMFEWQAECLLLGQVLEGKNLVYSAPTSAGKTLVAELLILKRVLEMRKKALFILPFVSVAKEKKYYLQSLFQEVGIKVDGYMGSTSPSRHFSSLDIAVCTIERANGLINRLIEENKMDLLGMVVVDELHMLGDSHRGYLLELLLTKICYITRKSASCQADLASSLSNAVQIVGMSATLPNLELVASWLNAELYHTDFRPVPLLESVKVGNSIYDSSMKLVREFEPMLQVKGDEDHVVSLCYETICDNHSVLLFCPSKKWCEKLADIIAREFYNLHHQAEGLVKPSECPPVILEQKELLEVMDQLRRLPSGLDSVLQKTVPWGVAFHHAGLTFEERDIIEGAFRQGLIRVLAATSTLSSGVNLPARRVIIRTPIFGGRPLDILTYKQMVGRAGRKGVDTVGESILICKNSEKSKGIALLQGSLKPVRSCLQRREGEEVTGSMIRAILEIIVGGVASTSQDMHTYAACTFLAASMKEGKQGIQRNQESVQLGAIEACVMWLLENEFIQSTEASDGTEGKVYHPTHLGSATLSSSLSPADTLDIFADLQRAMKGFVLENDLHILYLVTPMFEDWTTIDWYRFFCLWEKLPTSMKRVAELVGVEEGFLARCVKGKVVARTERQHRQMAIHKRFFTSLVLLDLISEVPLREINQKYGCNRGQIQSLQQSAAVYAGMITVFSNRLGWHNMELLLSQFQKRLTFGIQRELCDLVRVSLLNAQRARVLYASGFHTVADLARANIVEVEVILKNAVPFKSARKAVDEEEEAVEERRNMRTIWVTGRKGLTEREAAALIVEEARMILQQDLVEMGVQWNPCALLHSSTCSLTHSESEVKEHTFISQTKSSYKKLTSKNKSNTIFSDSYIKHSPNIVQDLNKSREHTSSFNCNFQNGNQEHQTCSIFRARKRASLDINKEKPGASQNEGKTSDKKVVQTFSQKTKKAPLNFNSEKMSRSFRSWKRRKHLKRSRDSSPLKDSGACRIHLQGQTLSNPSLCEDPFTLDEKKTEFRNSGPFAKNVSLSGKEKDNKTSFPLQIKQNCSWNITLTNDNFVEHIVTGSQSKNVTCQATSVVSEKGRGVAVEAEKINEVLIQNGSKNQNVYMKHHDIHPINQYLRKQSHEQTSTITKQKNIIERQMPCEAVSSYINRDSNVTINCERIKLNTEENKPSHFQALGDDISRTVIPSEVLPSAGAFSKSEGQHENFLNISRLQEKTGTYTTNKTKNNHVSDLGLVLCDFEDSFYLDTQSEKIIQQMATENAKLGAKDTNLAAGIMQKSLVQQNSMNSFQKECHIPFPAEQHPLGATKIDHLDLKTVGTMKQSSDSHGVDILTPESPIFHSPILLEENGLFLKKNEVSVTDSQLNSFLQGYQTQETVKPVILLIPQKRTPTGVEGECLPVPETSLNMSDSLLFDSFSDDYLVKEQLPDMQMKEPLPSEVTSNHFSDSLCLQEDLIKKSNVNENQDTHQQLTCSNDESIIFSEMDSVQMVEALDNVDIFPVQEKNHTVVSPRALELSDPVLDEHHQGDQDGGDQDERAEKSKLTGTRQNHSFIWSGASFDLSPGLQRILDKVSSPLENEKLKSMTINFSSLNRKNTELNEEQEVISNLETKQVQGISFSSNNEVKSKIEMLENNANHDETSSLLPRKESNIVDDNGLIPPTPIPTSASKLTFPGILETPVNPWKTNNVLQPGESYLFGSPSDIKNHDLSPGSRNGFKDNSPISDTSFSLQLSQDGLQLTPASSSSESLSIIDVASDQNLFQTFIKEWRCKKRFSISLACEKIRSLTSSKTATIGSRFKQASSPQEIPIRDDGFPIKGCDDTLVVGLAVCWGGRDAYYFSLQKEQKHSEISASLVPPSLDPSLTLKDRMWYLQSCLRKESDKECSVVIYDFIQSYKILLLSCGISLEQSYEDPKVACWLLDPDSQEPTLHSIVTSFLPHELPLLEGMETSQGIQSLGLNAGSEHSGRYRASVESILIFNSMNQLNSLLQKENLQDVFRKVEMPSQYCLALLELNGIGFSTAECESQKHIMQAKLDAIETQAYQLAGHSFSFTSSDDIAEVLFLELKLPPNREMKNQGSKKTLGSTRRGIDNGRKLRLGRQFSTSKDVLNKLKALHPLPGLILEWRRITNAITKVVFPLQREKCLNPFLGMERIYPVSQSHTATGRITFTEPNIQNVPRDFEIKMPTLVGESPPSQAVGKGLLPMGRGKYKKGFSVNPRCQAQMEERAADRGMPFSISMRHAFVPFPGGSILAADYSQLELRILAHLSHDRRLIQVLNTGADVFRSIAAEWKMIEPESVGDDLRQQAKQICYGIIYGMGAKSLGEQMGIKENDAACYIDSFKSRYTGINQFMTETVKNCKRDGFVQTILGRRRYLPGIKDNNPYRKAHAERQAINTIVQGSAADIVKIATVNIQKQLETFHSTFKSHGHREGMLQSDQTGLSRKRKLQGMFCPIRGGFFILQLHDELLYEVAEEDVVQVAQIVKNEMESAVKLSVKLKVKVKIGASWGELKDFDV
For `Cc1cccc(N(C)C(=O)[C@@H]2[C@H](O)[C@H](O)CN2c2nc(C)cc(C)c2C#N)c1` [Example 55, (2S,3S,4R)-1-(3-Cyano-4,6-dimethyl-pyridin-2-yl)-3,4-dihydroxy-N-methyl-N-(m-tolyl)-pyrrolidine-2-carboxamide], the IC50 was 118 nM.
`CCN(C(=O)[C@H]1C[C@@H](N2CCNCC2)CN1c1nc(C)cc(C)c1C#N)c1cccc(C)c1` (stereo in doubt) [Example 50, (2R,4R)-1-(3-Cyano-4,6-dimethylpyridin-2-yl)-N-ethyl-4-(piperazin-1-yl)-N-(m-tolyl)-pyrrolidine-2-carboxamide] showed an IC50 of 232 nM.
For `Cc1cc(C(F)(F)F)cc(N2C(=O)N(CCN3CCC3)C[C@H]2C(=O)N(C)c2ccc(F)c(Cl)c2F)n1` [Example 201, (S)-1-(2-(Azetidin-1-yl)ethyl)-N-(3-chloro-2,4-difluorophenyl)-N-methyl-3-(6-methyl-4-(trifluoromethyl)-pyridin-2-yl)-2-oxoimidazolidine-4-carboxamide], the IC50 was 26 nM.
Work on `Cc1cc(C(F)(F)F)c(C#N)c(N2CC[C@@H](O)[C@H]2C(=O)N(C)c2ccc(F)c(Cl)c2)n1` [Example 81, (2S,3R)—N-(3-Chloro-4-fluorophenyl)-1-(3-cyano-6-methyl-4-(trifluoromethyl)pyridin-2-yl)-3-hydroxy-N-methylpyrrolidine-2-carboxamide] yielded an IC50 of 8 nM.
For `C=Cc1c(F)ccc(N(C)C(=O)[C@@H]2COC(=O)N2c2cc(C(F)(F)F)cc(C)n2)c1F` [Example 107, (S)—N-(2,4-Difluoro-3-vinylphenyl)-N-methyl-3-(6-methyl-4-(trifluoromethyl)pyridin-2-yl)-2-oxooxazolidine-4-carboxamide], the IC50 was 18 nM.
`Cc1cc(C(F)(F)F)cc(N2C(=O)OC[C@H]2C(=O)N(C)c2ccc(Cl)cc2F)n1` [Example 97, (S)-N-(4-Chloro-2-fluorophenyl)-N-methyl-3-(6-methyl-4-(trifluoromethyl)pyridin-2-yl)-2-oxooxazolidine-4-carboxamide] gave an IC50 of 11 nM.
`Cc1cc(Br)cc(N2C(=O)OC[C@H]2C(=O)N(C)c2ccc(F)c(Cl)c2)n1` [Example 116, (S)-3-(4-Bromo-6-methylpyridin-2-yl)-N-(3-chloro-4-fluorophenyl)-N-methyl-2-oxooxazolidine-4-carboxamide] was tested, and the IC50 was 71 nM.
`Cc1cccc(N(C)C(=O)[C@@H]2[C@H](O)CCN2c2nc(C)cc(C)c2C#N)c1` [Example 25, (2S,3R)-1-(3-Cyano-4,6-dimethylpyridin-2-yl)-3-hydroxy-N-methyl-N-(m-tolyl)pyrrolidine-2-carboxamide] gave an IC50 of 32 nM.
For `Cc1cc(C(F)(F)F)cc(N2C(=O)NC[C@H]2C(=O)N(C)c2ccc3c(Cl)c[nH]c3n2)n1` [Example 240, (S)—N-(3-Chloro-1H-pyrrolo[2,3-b]pyridin-6-yl)-N-methyl-3-(6-methyl-4-(trifluoromethyl)pyridin-2-yl)-2-oxoimidazolidine-4-carboxamide], the IC50 was 7 nM.
`Cc1cc(C(F)(F)F)cc(N2C(=O)OC[C@H]2C(=O)N(C)c2ccc(Cl)cc2Cl)n1` [Example 171, (S)-N-(2,4-Dichlorophenyl)-N-methyl-3-(6-methyl-4-(trifluoromethyl)pyridin-2-yl)-2-oxooxazolidine-4-carboxamide] was tested, and the IC50 was 68 nM.
Compound `Cc1cc(C)c(C#N)c(N2C[C@@H](O)C[C@H]2C(=O)N(C)c2cccc(C(F)F)c2)n1` [Example 12, (2S,4S)-1-(3-Cyano-4,6-dimethylpyridin-2-yl)-N-(3-(difluoromethyl)phenyl)-4-hydroxy-N-methylpyrrolidine-2-carboxamide] has an IC50 of 710 nM.
Work on `CCN(C(=O)[C@@H]1C[C@H](N(C)[C@H]2CCC[C@H]2O)CN1c1cc(C(F)(F)F)cc(C)n1)c1ccc(F)c(F)c1` [Example 142, (2S,4S)-N-(3,4-Difluorophenyl)-N-ethyl-4-(((1S,2R)-2-hydroxycyclopentyl)(methyl)amino)-1-(6-methyl-4-(trifluoromethyl)pyridin-2-yl)pyrrolidine-2-carboxamide] yielded an IC50 of 160 nM.
For `[2H]C([2H])([2H])N(C(=O)[C@@H]1[C@H](O)[C@H](O)C(=O)N1c1cc(C(F)(F)F)cc(C)n1)c1ccc(F)c(Cl)c1F` [Example 162, (2S,3S,4S)—N-(3-Chloro-2,4-difluorophenyl)-3,4-dihydroxy-N-(methyl-d3)-1-(6-methyl-4-(trifluoromethyl)pyridin-2-yl)-5-oxopyrrolidine-2-carboxamide], the IC50 was 3 nM.
In the case of `Cc1cc(C(F)(F)F)cc(N2C(=O)N(CC(=O)N(C)C)C[C@H]2C(=O)N(C)c2ccc(F)c(Cl)c2)n1` [Example 185, (S)-N-(3-Chloro-4-fluorophenyl)-1-(2-(dimethylamino)-2-oxoethyl)-N-methyl-3-(6-methyl-4-(trifluoromethyl)pyridin-2-yl)-2-oxoimidazolidine-4-carboxamide], the IC50 is reported as 10 nM.
For `Cc1cc(C(F)(F)F)cc(N2C(=O)NC[C@H]2C(=O)N(C)c2ccc3ccn(C)c3n2)n1` [Example 234, (S)—N-Methyl-N-(1-methyl-1H-pyrrolo[2,3-b]pyridin-6-yl)-3-(6-methyl-4-(trifluoromethyl)pyridin-2-yl)-2-oxoimidazolidine-4-carboxamide], the IC50 was 5 nM.
In the case of `Cc1cccc(N(C)C(=O)[C@@H]2C[C@H](O)CN2c2nc(C)cc(C)c2C#N)c1` [Example 9, (2S,4S)-1-(3-Cyano-4,6-dimethylpyridin-2-yl)-4-hydroxy-N-methyl-N-(m-tolyl)pyrrolidine-2-carboxamide], the IC50 is reported as 87 nM.
Compound `Cc1cc(C(F)(F)F)cc(N2C(=O)N(CCN3CCN(CCO)CC3)C[C@H]2C(=O)N(C)c2ccc(F)c(Cl)c2F)n1` [Example 209, (S)-N-(3-Chloro-2,4-difluorophenyl)-1-(2-(4-(2-hydroxyethyl)piperazin-1-yl)ethyl)-N-methyl-3-(6-methyl-4-(trifluoromethyl)pyridin-2-yl)-2-oxoimidazolidine-4-carboxamide] has an IC50 of 8 nM.
In the case of `Cc1cc(C)c(C#N)c(N2C[C@@H](O)C[C@H]2C(=O)N(C)c2ccc(F)c(F)c2)n1` [Example 4, (2S,4S)-1-(3-Cyano-4,6-dimethylpyridin-2-yl)-N-(3,4-difluorophenyl)-4-hydroxy-N-methylpyrrolidine-2-carboxamide], the IC50 is reported as 288 nM.
`Cc1cc(C(F)(F)F)cc(N2C(=O)N(S(C)(=O)=O)C[C@H]2C(=O)N(C)c2ccc(F)c(Cl)c2)n1` [Example 159, (S)—N-(3-Chloro-4-fluorophenyl)-N-methyl-3-(6-methyl-4-(trifluoromethyl)pyridin-2-yl)-1-(methylsulfonyl)-2-oxoimidazolidine-4-carboxamide] gave an IC50 of 178 nM.
Compound `Cc1cc(C(F)(F)F)cc(N2C(=O)N(CCN3CCOCC3)C[C@H]2C(=O)N(C)c2ccc(F)c(Cl)c2)n1` [Example 194, (S)-N-(3-Chloro-4-fluorophenyl)-N-methyl-3-(6-methyl-4-(trifluoromethyl)pyridin-2-yl)-1-(2-morpholinoethyl)-2-oxoimidazolidine-4-carboxamide] has an IC50 of 7 nM.
`Cc1cc(C)c(C#N)c(N2C[C@@H](O)C[C@H]2C(=O)N(C)c2ccc(F)c(C(F)(F)F)c2)n1` [Example 10, (2S,4S)-1-(3-Cyano-4,6-dimethylpyridin-2-yl)-N-(4-fluoro-3-(trifluoromethyl)phenyl)-4-hydroxy-N-methylpyrrolidine-2-carboxamide] showed an IC50 of 316 nM.
`Cc1cc(C(F)(F)F)cc(N2C(=O)N(CCN3CC(O)C3)C[C@H]2C(=O)N(C)c2ccc(F)c(Cl)c2F)n1` [Example 202, (S)-N-(3-Chloro-2,4-difluorophenyl)-1-(2-(3-hydroxyazetidin-1-yl)ethyl)-N-methyl-3-(6-methyl-4-(trifluoromethyl)pyridin-2-yl)-2-oxoimidazolidine-4-carboxamide] was tested, and the IC50 was 7 nM.
For `CCN(C(=O)[C@@H]1C[C@H](N2CCO[C@H](CO)C2)CN1c1nc(C)cc(C(F)(F)F)c1C#N)c1ccc(F)c(Cl)c1` [Example 154, (2S,4S)-N-(3-Chloro-4-fluorophenyl)-1-(3-cyano-6-methyl-4-(trifluoromethyl)pyridin-2-yl)-N-ethyl-4-((S)-2-(hydroxymethyl)morpholino)pyrrolidine-2-carboxamide], the IC50 was 15 nM.
Compound `Cc1cc(C(F)(F)F)cc(N2C(=O)OC[C@H]2C(=O)N(C)c2ccc(Br)cc2F)n1` [Example 94, (S)-N-(4-Bromo-2-fluorophenyl)-N-methyl-3-(6-methyl-4-(trifluoromethyl)pyridin-2-yl)-2-oxooxazolidine-4-carboxamide] has an IC50 of 12 nM.
`Cc1cc(C(F)(F)F)cc(N2C(=O)N(CCN3CC[C@H](O)C3)C[C@H]2C(=O)N(C)c2ccc(F)c(Cl)c2)n1` [Example 196, (S)-N-(3-Chloro-4-fluorophenyl)-1-(2-((S)-3-hydroxypyrrolidin-1-yl)ethyl)-N-methyl-3-(6-methyl-4-(trifluoromethyl)pyridin-2-yl)-2-oxoimidazolidine-4-carboxamide] was tested, and the IC50 was 24 nM.
With `CCN(C(=O)[C@H]1C[C@@H](NCCS(C)(=O)=O)CN1c1nc(C)cc(C)c1C#N)c1cccc(C)c1` (stereo in doubt) [Example 45, (2R,4R)-1-(3-Cyano-4,6-dimethylpyridin-2-yl)-N-ethyl-4-((2-(methylsulfonyl)ethyl)-amino)-N-(m-tolyl)pyrrolidine-2-carboxamide] the IC50 was 85 nM.
Compound `CCN(C(=O)[C@H]1C[C@@H](NC)CN1c1nc(C)cc(C)c1C#N)c1cccc(C)c1` (stereo in doubt) [Example 43, (2R,4R)-1-(3-Cyano-4,6-dimethylpyridin-2-yl)-N-ethyl-4-(methylamino)-N-(m-tolyl)-pyrrolidine-2-carboxamide] has an IC50 of 221 nM.

Same assay, conditions: read-out: Polθ IC50; full length N-His, C-term FLAG tagged Polθ, PicoGreen fluorescence, 12 point concentration response
`Cc1cccc(N(C)C(=O)[C@@H]2COC(=O)N2c2cc(C(F)(F)F)cc(C)n2)c1` [Example 58, (S)—N-Methyl-3-(6-methyl-4-(trifluoromethyl)pyridin-2-yl)-2-oxo-N-(m-tolyl)oxazolidine-4-carboxamide] was tested, and the IC50 was 7 nM.
`Cc1cc(C(F)(F)F)cc(N2C(=O)OC[C@H]2C(=O)N(C)c2cccc(Cl)c2)n1` [Example 87, (S)-N-(3-Chlorophenyl)-N-methyl-3-(6-methyl-4-(trifluoromethyl)pyridin-2-yl)-2-oxooxazolidine-4-carboxamide] showed an IC50 of 15 nM.
